Measured values taken from patent US12215111B2, “Imidazopyridazine IL-17 inhibitor compounds” (Janssen Pharmaceutica NV, priority 2021, dated 2025).

Assays:
[1] = target: IL-17A(FLAG-Tagged): IL-17RA(His-Tagged) (Homo sapiens, UniProt Q16552, K93Q); assay: IL-17A(FLAG-tagged):IL-17RA(His-tagged) binding disruption Eu-HTRF assay, Protocol 1; details: FLAG tagged IL-17A at 2× final concentration (2.5 nM); simple average if tested more than once
From the text: IL-17A(FLAG-Tagged): IL-17RA(His-Tagged) Binding Disruption Eu-HTRF Assay
An antibody directed against the FLAG tag of IL-17A (SEQ ID NO:1) is labeled with the HTRF donor chromophore (Europium-cryptate). IL-17A is present as a dimer that is “locked into” this quaternary structure due to the formation of loop-spanning […] disulfide bridges. The construct of IL-17RA used in the assay excludes the outer-membrane portion of the receptor and is fused to a C-terminal 10×His tag (SEQ ID NO:2). An antibody directed against the His tag of the IL-17RA chimera is labeled with the HTRF acceptor chromophore (“D2”). The fluorescence-resonance energy transfer (FRET) depends on the vicinity of the donor chromophore to the acceptor, and interruption of the binding between the IL-17A and IL-17RA causes the reduction/loss of FRET. Therefore, this assay allows to evaluate the compound effect on the binding IL-17A and IL-17RA by monitoring the fluorescence intensity of donor vs acceptor. The assay was run using either Protocol 1 or Protocol 2 described below.
Protocol 1: 40 nL of 2-fold serial diluted compound solution for total 22 dilution points is added into each well of a 1536-well, white, low-volume, non-binding plate (Greiner #782904), then 2 μl of FLAG tagged IL-17A at 2× final concentration (2.5 nM) in solution of PBS+0.01% Triton-X100 is added to each well. The assay plate is briefly centrifuged then incubated for 1 h at rt. A mixed solution is prepared containing 2×5 nM 10HIS×IL-17RA, 2×2.5 nM Eu-anti-FLAG (CISBIO), 2×5 nM D2-anti-HIS (CISBIO) in PBS+0.01% Triton-X100+200 mM Potassium Fluoride (Sigma 60238) and […] of mix is added to each well of the assay plate. The plate is briefly centrifuged then incubated for 2 h at rt. The HTRF intensities at the wavelength of donor (620 nm) and acceptor (665 nm) are measured using BMG Pherastar. The ratio between intensities at two wavelengths is calculated and plotted against the compound concentration and the data is fitted to a one-site competition model to yield IC50 of the compound.

[2] = test system: IL-17A-induced G-CSF production in human normal keratinocyte (NHK); assay: NHK assay: IL-17A-induced G-CSF production in normal human keratinocytes; format: cell-based; details: IL-17A 5 ng/mL, 24 h at 37° C., G-CSF by HTRF, simple average if tested more than once
Method: IL-17A acts directly on keratinocytes through binding to dimeric receptor IL-17RA/RC and drives the production of a number of inflammatory mediators known to be elevated in psoriasis lesional tissue. IL-17A small molecule inhibitors that block the IL-17A to interact with IL-17R would inhibit the IL-17A signaling in its targeted cells such as keratinocytes. The compound functional activity is evaluated for its impact on IL-17A-induced G-CSF production in human normal keratinocyte (NHK).
Adult normal human keratinocytes are cultured in keratinocyte growth medium (Lonza) in a flask till reaching ˜90% confluence, then cells are transferred to a 384-well plate at density of 3000-4000 cell/well. Recombinant human IL-17A (Gibco PHC9174) is pre-incubated with titrated compound or DMSO for 1 h at rt then added to the cell culture plate. The final concentration of IL-17A is 5 ng/mL and DMSO is 0.2%, in the culture containing 5% FBS. Cells are cultured/treated for 24 h at 37° C. Supernatants are collected and G-CSF production is measured through HTRF technology using Human G-CSF Kit (CisBio). G-CSF concentration was extrapolated from the standard curve and IC50 is determined using GraphPad Prism. Cell viability is also evaluated using CellTiter-Glo kit (Promega) and effect of compound on cell viability is compared to DMSO control.

UniProt Q16552, sequence (Q16552 with tags, fused parts or gaps K93Q): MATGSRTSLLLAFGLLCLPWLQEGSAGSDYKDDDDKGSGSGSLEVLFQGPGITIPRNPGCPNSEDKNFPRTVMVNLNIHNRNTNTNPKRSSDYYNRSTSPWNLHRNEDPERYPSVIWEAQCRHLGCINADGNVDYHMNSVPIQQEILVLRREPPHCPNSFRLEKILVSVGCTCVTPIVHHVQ

SMILES	IC50 [1] [µM]	IC50 ([2]; Homo sapiens, Keratinocyte) [µM]	IC50 [2] [µM]
C[C@H]1CN(Cc2cnn3cc([C@@H](NC(=O)c4nonc4C4CC4)C4CCC(F)(F)CC4)nc3c2)C(=O)N1 [Example 4, 4-Cyclopropyl-N—((S)—(4,4-difluorocyclohexyl)(7-(((S)-4-methyl-2-oxoimidazolidin-1-yl)methyl)imidazo[1,2-b]pyridazin-2-yl)methyl)-1,2,5-oxadiazole-3-carboxamide]	< 4	< 4	
CC(C)n1nccc1C(=O)N[C@H](c1cn2ncc(CN3C[C@H](C)NC3=O)cc2n1)C1CCC(F)(F)CC1 [Example 5, N—((S)—(4,4-Difluorocyclohexyl)(7-(((S)-4-methyl-2-oxoimidazolidin-1-yl)methyl)imidazo[1,2-b]pyridazin-2-yl)methyl)-1-isopropyl-1H-pyrazole-5-carboxamide]	< 4	> 10	
C[C@@H]1CN(Cc2cnn3cc([C@@H](NC(=O)c4nonc4C4CC4)C4CCC(F)(F)CC4)nc3c2)C(=O)N1 [Example 6, 4-Cyclopropyl-N—((S)—(4,4-difluorocyclohexyl)(7-(((R)-4-methyl-2-oxoimidazolidin-1-yl)methyl)imidazo[1,2-b]pyridazin-2-yl)methyl)-1,2,5-oxadiazole-3-carboxamide]	< 4	< 4	
COC[C@H](c1cnn2cc([C@H](COC(C)(C)C(F)(F)F)NC(=O)c3nonc3C)nc2c1)N1C[C@@H](C(F)(F)F)NC1=O [Example 9]	< 4	< 4	
COC[C@H](c1cnn2cc([C@H](COC(C)(C)C(F)(F)F)NC(=O)c3nonc3C3CC3)nc2c1)N1C[C@@H](C(F)(F)F)NC1=O [Example 10]	< 4	< 4	
COC[C@H](c1cnn2cc([C@H](COC(C)(C)C(F)(F)F)NC(=O)c3ccnn3C(C)C)nc2c1)N1C[C@@H](C(F)(F)F)NC1=O [Example 11]	< 4	< 4	

The next lines start with results.

IC50 [1] [µM]	SMILES	IC50 ([2]; Homo sapiens, Keratinocyte) [µM]	IC50 [2] [µM]
< 4	Cc1nonc1C(=O)N[C@H](c1cn2ncc([C@@H](C3CC3)N3CC(CC(F)(F)F)NC3=O)cc2n1)C1CCC(F)(F)CC1 (single isomer, unassigned) [Example 19, N—((S)-(7-((R)-Cyclopropyl((R*)-2-oxo-4-(2,2,2-trifluoroethyl)imidazolidin-1-yl)methyl)imidazo[1,2-b]pyridazin-2-yl)(4,4-difluorocyclohexyl)methyl)-4-methyl-1,2,5-oxadiazole-3-carboxamide]	< 4	
< 4	Cc1nonc1C(=O)N[C@H](c1cn2ncc([C@@H](C3CC3)N3CC(CC(F)(F)F)NC3=O)cc2n1)C1CCC(F)(F)CC1 (single isomer, unassigned) [Example 20, N—((S)-(7-((R)-Cyclopropyl((S*)-2-oxo-4-(2,2,2-trifluoroethyl)imidazolidin-1-yl)methyl)imidazo[1,2-b]pyridazin-2-yl)(4,4-difluorocyclohexyl)methyl)-4-methyl-1,2,5-oxadiazole-3-carboxamide]		< 4
< 4	Cc1nonc1C(=O)N[C@H](c1cn2ncc(CN3CCNC3=O)cc2n1)C1CCC(F)(F)CC1 [Example 1, (S)—N-((4,4-Difluorocyclohexyl)(7-((2-oxoimidazolidin-1-yl)methyl)imidazo[1,2-b]pyridazin-2-yl)methyl)-4-methyl-1,2,5-oxadiazole-3-carboxamide]	4 to 10	
< 4	O=C(N[C@H](c1cn2ncc(CN3CCNC3=O)cc2n1)C1CCC(F)(F)CC1)c1nonc1C1CC1 [Example 2, (S)-4-Cyclopropyl-N-((4,4-difluorocyclohexyl)(7-((2-oxoimidazolidin-1-yl)methyl)imidazo[1,2-b]pyridazin-2-yl)methyl)-1,2,5-oxadiazole-3-carboxamide]	< 4	
< 4	CC(C)n1nccc1C(=O)N[C@H](c1cn2ncc(CN3CCNC3=O)cc2n1)C1CCC(F)(F)CC1 [Example 3, (S)—N-((4,4-Difluorocyclohexyl)(7-((2-oxoimidazolidin-1-yl)methyl)imidazo[1,2-b]pyridazin-2-yl)methyl)-1-isopropyl-1H-pyrazole-5-carboxamide]	< 4	
